Reference: the NIST ThermoML archive (doi:10.1016/j.jct.2013.10.023)
± gives the expanded uncertainty stated by the source.

Experiment: xn = mol fraction of the nth substance listed
Conditions: 101 kPa, Liquid; for viscosity: Capillary tube (Ostwald / Ubbelohde) method; for mass density: Vibrating tube method

## CC(=O)[O-].CCn1cc[n+](C)c1 [1-ethyl-3-methylimidazolium acetate] + CCOS(=O)(=O)[O-].CCn1cc[n+](C)c1
298.15 K, x1 = 0.0993
  viscosity: 97.2 ± 2.2 mPa·s
  mass density: 1226.62 ± 10 kg/m3
298.15 K, x1 = 0.2011
  viscosity: 99.93 ± 2.3 mPa·s
  mass density: 1214.23 ± 10 kg/m3
298.15 K, x1 = 0.2973
  viscosity: 101.8 ± 2.4 mPa·s
  mass density: 1202.11 ± 10 kg/m3
298.15 K, x1 = 0.3917
  viscosity: 105.2 ± 2.5 mPa·s
  mass density: 1189.85 ± 10 kg/m3
298.15 K, x1 = 0.5069
  viscosity: 110.1 ± 2.6 mPa·s
  mass density: 1174.26 ± 10 kg/m3
298.15 K, x1 = 0.5988
  viscosity: 114.1 ± 2.8 mPa·s
  mass density: 1161.36 ± 10 kg/m3
298.15 K, x1 = 0.705
  viscosity: 120.1 ± 3 mPa·s
  mass density: 1145.81 ± 10 kg/m3
298.15 K, x1 = 0.8012
  viscosity: 125.8 ± 3.2 mPa·s
  mass density: 1131.13 ± 10 kg/m3
298.15 K, x1 = 0.9007
  viscosity: 131 ± 3.3 mPa·s
  mass density: 1115.5 ± 10 kg/m3
298.15 K, x1 = 1
  viscosity: 138.4 ± 3.6 mPa·s
  mass density: 1099.04 ± 10 kg/m3
308.15 K, x1 = 0.0993
  viscosity: 61.11 ± 1.3 mPa·s
  mass density: 1219.9 ± 10 kg/m3
308.15 K, x1 = 0.2011
  viscosity: 61.27 ± 1.3 mPa·s
  mass density: 1207.5 ± 10 kg/m3
308.15 K, x1 = 0.2973
  viscosity: 62.35 ± 1.3 mPa·s
  mass density: 1195.48 ± 10 kg/m3
308.15 K, x1 = 0.3917
  viscosity: 63.63 ± 1.3 mPa·s
  mass density: 1183.26 ± 10 kg/m3
308.15 K, x1 = 0.5069
  viscosity: 65.47 ± 1.4 mPa·s
  mass density: 1167.73 ± 10 kg/m3
308.15 K, x1 = 0.5988
  viscosity: 66.99 ± 1.4 mPa·s
  mass density: 1154.86 ± 10 kg/m3
308.15 K, x1 = 0.705
  viscosity: 69.07 ± 1.5 mPa·s
  mass density: 1139.5 ± 10 kg/m3
308.15 K, x1 = 0.8012
  viscosity: 71.01 ± 1.5 mPa·s
  mass density: 1124.87 ± 10 kg/m3
308.15 K, x1 = 0.9007
  viscosity: 73.4 ± 1.6 mPa·s
  mass density: 1109.3 ± 10 kg/m3
308.15 K, x1 = 1
  viscosity: 76.1 ± 1.6 mPa·s
  mass density: 1092.95 ± 10 kg/m3
318.15 K, x1 = 0.0993
  viscosity: 40.47 ± 0.85 mPa·s
  mass density: 1213.21 ± 10 kg/m3
318.15 K, x1 = 0.2011
  viscosity: 41.05 ± 0.86 mPa·s
  mass density: 1200.9 ± 10 kg/m3
318.15 K, x1 = 0.2973
  viscosity: 41.59 ± 0.87 mPa·s
  mass density: 1188.92 ± 10 kg/m3
318.15 K, x1 = 0.3917
  viscosity: 42.12 ± 0.88 mPa·s
  mass density: 1176.76 ± 10 kg/m3
318.15 K, x1 = 0.5069
  viscosity: 41.77 ± 0.88 mPa·s
  mass density: 1161.31 ± 10 kg/m3
318.15 K, x1 = 0.5988
  viscosity: 43.3 ± 0.91 mPa·s
  mass density: 1148.5 ± 10 kg/m3
318.15 K, x1 = 0.705
  viscosity: 43.93 ± 0.92 mPa·s
  mass density: 1133.15 ± 10 kg/m3
318.15 K, x1 = 0.8012
  viscosity: 44.55 ± 0.93 mPa·s
  mass density: 1118.65 ± 10 kg/m3
318.15 K, x1 = 0.9007
  viscosity: 45.24 ± 0.95 mPa·s
  mass density: 1103.14 ± 10 kg/m3
318.15 K, x1 = 1
  viscosity: 45.9 ± 0.96 mPa·s
  mass density: 1086.88 ± 10 kg/m3
328.15 K, x1 = 0.0993
  viscosity: 29.06 ± 0.61 mPa·s
  mass density: 1206.59 ± 10 kg/m3
328.15 K, x1 = 0.2011
  viscosity: 29.19 ± 0.61 mPa·s
  mass density: 1194.33 ± 10 kg/m3
328.15 K, x1 = 0.2973
  viscosity: 29.32 ± 0.61 mPa·s
  mass density: 1182.38 ± 10 kg/m3
328.15 K, x1 = 0.3917
  viscosity: 29.44 ± 0.62 mPa·s
  mass density: 1170.26 ± 10 kg/m3
328.15 K, x1 = 0.5069
  viscosity: 29.58 ± 0.62 mPa·s
  mass density: 1154.88 ± 10 kg/m3
328.15 K, x1 = 0.5988
  viscosity: 29.69 ± 0.62 mPa·s
  mass density: 1142.13 ± 10 kg/m3
328.15 K, x1 = 0.705
  viscosity: 29.81 ± 0.63 mPa·s
  mass density: 1126.87 ± 10 kg/m3
328.15 K, x1 = 0.8012
  viscosity: 29.91 ± 0.63 mPa·s
  mass density: 1112.55 ± 10 kg/m3
328.15 K, x1 = 0.9007
  viscosity: 30 ± 0.63 mPa·s
  mass density: 1097.01 ± 10 kg/m3
328.15 K, x1 = 1
  viscosity: 30.1 ± 0.63 mPa·s
  mass density: 1080.86 ± 10 kg/m3
338.15 K, x1 = 0.0993
  viscosity: 20.7 ± 0.43 mPa·s
  mass density: 1200.01 ± 10 kg/m3
338.15 K, x1 = 0.2011
  viscosity: 20.78 ± 0.44 mPa·s
  mass density: 1187.79 ± 10 kg/m3
338.15 K, x1 = 0.2973
  viscosity: 20.84 ± 0.44 mPa·s
  mass density: 1175.91 ± 10 kg/m3
338.15 K, x1 = 0.3917
  viscosity: 20.89 ± 0.44 mPa·s
  mass density: 1163.85 ± 10 kg/m3
338.15 K, x1 = 0.5069
  viscosity: 20.92 ± 0.44 mPa·s
  mass density: 1148.54 ± 10 kg/m3
338.15 K, x1 = 0.5988
  viscosity: 20.92 ± 0.44 mPa·s
  mass density: 1135.86 ± 10 kg/m3
338.15 K, x1 = 0.705
  viscosity: 20.89 ± 0.44 mPa·s
  mass density: 1120.68 ± 10 kg/m3
338.15 K, x1 = 0.8012
  viscosity: 20.86 ± 0.44 mPa·s
  mass density: 1106.35 ± 10 kg/m3
338.15 K, x1 = 0.9007
  viscosity: 20.84 ± 0.44 mPa·s
  mass density: 1090.93 ± 10 kg/m3
338.15 K, x1 = 1
  viscosity: 20.8 ± 0.44 mPa·s
  mass density: 1074.86 ± 10 kg/m3
348.15 K, x1 = 0.0993
  viscosity: 15.63 ± 0.33 mPa·s
  mass density: 1196.34 ± 10 kg/m3
348.15 K, x1 = 0.2011
  viscosity: 15.58 ± 0.33 mPa·s
  mass density: 1184.12 ± 10 kg/m3
348.15 K, x1 = 0.2973
  viscosity: 15.5 ± 0.33 mPa·s
  mass density: 1172.27 ± 10 kg/m3
348.15 K, x1 = 0.3917
  viscosity: 15.39 ± 0.32 mPa·s
  mass density: 1160.23 ± 10 kg/m3
348.15 K, x1 = 0.5069
  viscosity: 15.24 ± 0.32 mPa·s
  mass density: 1144.94 ± 10 kg/m3
348.15 K, x1 = 0.5988
  viscosity: 15.1 ± 0.32 mPa·s
  mass density: 1132.29 ± 10 kg/m3
348.15 K, x1 = 0.705
  viscosity: 14.91 ± 0.31 mPa·s
  mass density: 1117.12 ± 10 kg/m3
348.15 K, x1 = 0.8012
  viscosity: 14.72 ± 0.31 mPa·s
  mass density: 1102.78 ± 10 kg/m3
348.15 K, x1 = 0.9007
  viscosity: 14.51 ± 0.3 mPa·s
  mass density: 1087.39 ± 10 kg/m3
348.15 K, x1 = 1
  viscosity: 14.28 ± 0.3 mPa·s
  mass density: 1071.37 ± 10 kg/m3
358.15 K, x1 = 0.0993
  viscosity: 12.57 ± 0.26 mPa·s
  mass density: 1187 ± 10 kg/m3
358.15 K, x1 = 0.2011
  viscosity: 12.8 ± 0.27 mPa·s
  mass density: 1174.89 ± 10 kg/m3
358.15 K, x1 = 0.2973
  viscosity: 12.95 ± 0.27 mPa·s
  mass density: 1163.13 ± 10 kg/m3
358.15 K, x1 = 0.3917
  viscosity: 12.93 ± 0.27 mPa·s
  mass density: 1151.18 ± 10 kg/m3
358.15 K, x1 = 0.5069
  viscosity: 12.9 ± 0.27 mPa·s
  mass density: 1136.03 ± 10 kg/m3
358.15 K, x1 = 0.5988
  viscosity: 12.81 ± 0.27 mPa·s
  mass density: 1123.47 ± 10 kg/m3
358.15 K, x1 = 0.705
  viscosity: 12.7 ± 0.27 mPa·s
  mass density: 1108.41 ± 10 kg/m3
358.15 K, x1 = 0.8012
  viscosity: 12.47 ± 0.26 mPa·s
  mass density: 1094.15 ± 10 kg/m3
358.15 K, x1 = 0.9007
  viscosity: 12.17 ± 0.26 mPa·s
  mass density: 1078.94 ± 10 kg/m3
358.15 K, x1 = 1
  viscosity: 11.53 ± 0.24 mPa·s
  mass density: 1063.03 ± 10 kg/m3
